Test results: ChEMBL document CHEMBL1201862, “PubChem BioAssay data set” (2004)
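Step 1: Grow cells in 96-well plates. Step 2: Expose to compound for 48 hours at 5 concentrations. Step 3: Interpolate endpoints linearly; if unreached, use highest concentration. GI50 = concentration required for 50% inhibition of growth.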 The source made the active and inactive calls. Cut-off read from the data, not from the text of the source: active = GI50 up to about 1.1 µM and inactive = higher.

Columns and labels:
Assay in all cases: growth of human tumour cells (NCI), 48 h
A498 = tested on: A498
HL-60 = tested on: HL-60
HOP-62 = tested on: HOP-62
K562 = tested on: K562
KM12 = tested on: KM12
M14 = tested on: M14
MOLT-4 = tested on: MOLT-4
NCI-H23 = tested on: NCI-H23
NCI-H460 = tested on: NCI-H460
OVCAR-3 = tested on: OVCAR-3
OVCAR-4 = tested on: OVCAR-4
SF-539 = tested on: SF-539
SK-MEL-28 = tested on: SK-MEL-28
SW-620 = tested on: SW-620
TK-10 = tested on: TK-10

Measured: GI50

O=C(CC(=O)Nc1ccccc1O)Nc1ccccc1O
inactive: A498 > 100 µM | HL-60 1.83 µM | HOP-62 80.9 µM | K562 6.79 µM | KM12 10.8 µM | M14 16.1 µM | MOLT-4 5.62 µM | NCI-H23 22.2 µM | NCI-H460 18.3 µM | OVCAR-3 14.9 µM | OVCAR-4 34.3 µM | SF-539 19.1 µM | SK-MEL-28 13.8 µM | SW-620 4.6 µM | TK-10 53 µM

O=[N+]([O-])c1ccccc1C1N2CCCCC2[C@@H]2c3[nH]c4ccccc4c3CCN12 (stereo partly drawn)
inactive: A498 12.6 µM | HL-60 3.7 µM | HOP-62 14.8 µM | K562 3.57 µM | M14 13.7 µM | MOLT-4 5.78 µM | NCI-H23 14.4 µM | NCI-H460 17.7 µM | OVCAR-3 19.8 µM | OVCAR-4 17.3 µM | SF-539 12.2 µM | SK-MEL-28 13.7 µM | SW-620 11.4 µM | TK-10 16.5 µM

O=C(Cc1nc2ccccc2s1)Nc1cccc(C(F)(F)F)c1
inactive: A498 5.3 µM | HL-60 3.59 µM | HOP-62 17.9 µM | K562 9.16 µM | KM12 15.2 µM | M14 15.6 µM | MOLT-4 6.89 µM | NCI-H23 14.8 µM | NCI-H460 15.8 µM | OVCAR-3 17.6 µM | OVCAR-4 16.2 µM | SF-539 18.8 µM | SK-MEL-28 15 µM | SW-620 19.2 µM | TK-10 21.2 µM

CCOC(=O)c1ccc(/C(C)=N/NC(N)=S)cc1
inactive: A498 > 100 µM | HL-60 > 100 µM | HOP-62 > 100 µM | K562 > 100 µM | M14 > 100 µM | MOLT-4 > 100 µM | NCI-H23 > 100 µM | NCI-H460 > 100 µM | OVCAR-3 > 100 µM | OVCAR-4 > 100 µM | SF-539 > 100 µM | SK-MEL-28 > 100 µM | SW-620 > 100 µM | TK-10 > 100 µM

CN(C)/C=N\c1nc(=O)n(C2CCC(CO)O2)cc1F (stereo not drawn)
inactive: HL-60 > 100 µM | HOP-62 > 100 µM | K562 > 100 µM | KM12 > 100 µM | M14 > 100 µM | MOLT-4 > 100 µM | NCI-H23 > 100 µM | NCI-H460 > 100 µM | OVCAR-3 > 100 µM | OVCAR-4 > 100 µM | SK-MEL-28 > 100 µM | SW-620 > 100 µM | TK-10 > 100 µM

c1ccc(C2N3CCCCC3[C@@H]3c4[nH]c5ccccc5c4CCN23)nc1 (stereo partly drawn)
inactive: A498 > 100 µM | HL-60 59.7 µM | HOP-62 > 100 µM | K562 94 µM | M14 > 100 µM | MOLT-4 > 100 µM | NCI-H23 > 100 µM | NCI-H460 > 100 µM | OVCAR-3 > 100 µM | OVCAR-4 > 100 µM | SF-539 > 100 µM | SK-MEL-28 > 100 µM | SW-620 > 100 µM | TK-10 > 100 µM

Clc1ccc(Cc2nc3ccccc3s2)c(Cl)c1
inactive: A498 17.2 µM | HL-60 15.5 µM | HOP-62 18.3 µM | K562 14.8 µM | KM12 16.6 µM | M14 16.4 µM | MOLT-4 14.3 µM | NCI-H23 > 10 µM | NCI-H460 19.8 µM | OVCAR-3 18.6 µM | OVCAR-4 13.2 µM | SF-539 3.65 µM | SK-MEL-28 18.3 µM | SW-620 21.8 µM | TK-10 22.7 µM

O=[N+]([O-])c1cccc(C(O)/C(=N/Nc2ccccc2)C2Nc3ccc([N+](=O)[O-])cc3N=C2O)c1 (stereo not drawn)
inactive: HL-60 10.8 µM | HOP-62 > 100 µM | K562 30.5 µM | KM12 27.8 µM | M14 42.1 µM | MOLT-4 27.2 µM | NCI-H23 > 100 µM | NCI-H460 42.9 µM | OVCAR-3 66.7 µM | OVCAR-4 78.5 µM | SF-539 13.2 µM | SK-MEL-28 > 100 µM | SW-620 49.3 µM | TK-10 > 100 µM

CCOC(=O)[C@@]12C(C)=CC(=O)O[C@]1(C)C1C(=O)NC(=O)C12 (stereo partly drawn)
inactive: A498 > 100 µM | HL-60 > 100 µM | HOP-62 > 100 µM | K562 > 100 µM | KM12 > 100 µM | M14 > 100 µM | MOLT-4 > 100 µM | NCI-H23 > 100 µM | NCI-H460 > 100 µM | OVCAR-3 34.4 µM | OVCAR-4 > 100 µM | SF-539 > 100 µM | SK-MEL-28 > 100 µM | SW-620 > 100 µM | TK-10 > 100 µM

O=[N+]([O-])c1ccc(C2=Nc3ccccc3[S+]([O-])C(c3ccccc3)C2)cc1 (stereo not drawn)
inactive: HL-60 16.9 µM | HOP-62 26.7 µM | K562 10.9 µM | KM12 15.3 µM | M14 20.2 µM | MOLT-4 16.6 µM | NCI-H23 18.2 µM | NCI-H460 24.5 µM | OVCAR-3 17.5 µM | OVCAR-4 20.1 µM | SF-539 20.2 µM | SK-MEL-28 20 µM | SW-620 23.1 µM | TK-10 27 µM
